Measurements taken from patent US12721928B1, “Active agent-eluting hemostatic agents for prevention of surgical site infection” (priority 2020, dated 2026).
Read-outs that look alike come from different tables or passages of the source.

How the values were obtained:
mammalian cells = conditions: cited from earlier work
[1] = FTIR of antibiotic released from hemostatic agents (structural integrity); conditions: all released samples
Text: FTIR spectra were collected on a Nicolet Is10 to ensure structural integrity of antibiotics released from the hemostatic agents. Released samples were scanned in the range between 4000 and 800 cm^−1.

S. aureus = experiment: Modified Kirby-Bauer disk diffusion test; type: cell-based, Staphylococcus aureus; conditions: filter paper on S. aureus coated agar
Experimental: Inhibition of S. Aureus 25293 or E. Coli (Migula) Castellani and Chalmers by antibiotic-eluting hemostatic agents was determined through modified Kirby-Bauer disk diffusion tests and microdilution assays. Throughout all Kirby-Bauer tests, agar plates were formed using tryptic soy agar. The plates were subsequently coated with the appropriate strain within its exponential growth phase at a concentration of 10^8 CFU/mL. Filter papers that had been incubated with the hemostatic agents, gelatin, or pure antibiotic equivalent to 24-hour release concentrations for two hours were then immediately placed upon the plates. Zones of inhibition were measured and photographed following 16-18 hours of incubation at 37° C.

cultured cells = conditions: EDC up to 10 mg/mL; cited from earlier work

Compound	basic chemical stability of released antibiotic [1]	zone of inhibition (ZOI) (S. aureus)	further results
CN[C@H](CC(C)C)C(=O)N[C@H]1C(=O)N[C@@H](CC(N)=O)C(=O)N[C@H]2C(=O)N[C@H]3C(=O)N[C@H](C(=O)N[C@H](C(=O)O)c4cc(O)cc(O)c4-c4cc3ccc4O)[C@H](O)c3ccc(c(Cl)c3)Oc3cc2cc(c3O[C@@H]2O[C@H](CO)[C@@H](O)[C@H](O)[C@H]2O[C@H]2C[C@](C)(N)[C@H](O)[C@H](C)O2)Oc2ccc(cc2Cl)[C@H]1O [vancomycin]	confirmed	clear zone of inhibition	toxicity to mammalian cells (mammalian cells; each component separately): minimally toxic
CCCCCCCCCC(=O)N[C@@H](Cc1c[nH]c2ccccc12)C(=O)N[C@H](CC(N)=O)C(=O)N[C@@H](CC(=O)O)C(=O)N[C@@H]1C(=O)NCC(=O)N[C@@H](CCCN)C(=O)N[C@@H](CC(=O)O)C(=O)N[C@H](C)C(=O)N[C@@H](CC(=O)O)C(=O)NCC(=O)N[C@H](CO)C(=O)N[C@@H]([C@H](C)CC(=O)O)C(=O)N[C@@H](CC(=O)c2ccccc2N)C(=O)O[C@@H]1C [daptomycin]	–	clear zone of inhibition	–
CC(C)(O/N=C(\C(=O)N[C@@H]1C(=O)N2C(C(=O)[O-])=C(C[n+]3ccccc3)CS[C@H]12)c1csc(N)n1)C(=O)O [ceftazidime]	confirmed	–	–
gelatin	–	–	toxicity to mammalian cells (mammalian cells): minimally toxic
CCN=C=NCCCN(C)C [EDC, 1-ethyl-3-(3-dimethylaminopropyl) carbodiimide]	–	–	cytotoxicity to cultured cells (cultured cells): negligibly cytotoxic
